Literature values as cited in patent publication US6235268A, “Antiplaque oral composition and method” (Colgate-Palmolive Company, priority 2000, dated 2001).

Tested on: rats
Settings: Merck Index, Eleventh Ed., 1989

SMILES: COc1ccc(C(=O)c2ccccc2)c(O)c1 [2-hydroxy-4-methoxybenzophenone]
- LD-50 (oral/rats): 12800 mg/kg
